Laboratory results as given in US10118922B2 (Janssen Pharmaceutica NV, priority 2013, dated 2018).

Legend:
[1] = test system: C57bl/6J Mice; test: GPR120 C57bl6 mouse IPGTT; type: in vivo; details: dosed 30 min prior to glucose IP 1.5 g/kg
Procedure: Male, C57bl/6J Mice were ordered in at 8 weeks of age from Jackson Labs. Individual mice weighed anywhere in the range of 25-30 grams on study day. The mice were fasted, with removal of food occurring at 7 am on the morning of the study. Animals were moved into the room at 10:00 am, to give them time to acclimate. Glucose (insulin syringes) was drawn up either the night before or the morning of the study. Glucose was dosed (IP) at 1.5 g/kg at 7.5 ml/kg (20% glucose straight TEKNOVA, 250 ml sterile bottle w/ catalogue number G0525). Test compounds were kept spinning and were only drawn into the syringes prior to study commencement. Animals were bled via tail snip to determine basal glucose levels prior to dosing of treatments. An Ascensia BREEZE Blood Glucose Monitoring System by Bayer (using unique 10-test disks) was used for determining glucose levels. The bleeds started at approximately 12:45 pm and dosing started, at 1-minute intervals, immediately after. All groups were dosed 30 minutes prior to glucose administration at a dose volume of 10 ml/kg (the dose volume was calculated separately for each individual animal). Thirty minutes after the first dose animals were bled again for a second baseline, or T=0, and immediately dosed with glucose via an i.p. injection. The exact dose volume for glucose was also calculated separately for each individual animal. Glucose measurements were taken at −30 min prior to compound dose, at t=0 (immediately prior to glucose dose), and at 15, 30, 45, 60, 90 min post glucose dose.
Glucose values were entered into an Excel sheet and graphed in GraphPad Prism. The following were calculated from Prism: Change from −30 to 0 BSLN Glucose, Raw Glucose AUC −30 to 90 min, Delta Glucose AUC −30 to 90 min, Raw Glucose AUC 0 to 90 min, Delta Glucose AUC 0 to 90 min.

[2] = target: T1, Human GPR120 short form (Homo sapiens, UniProt Q5NUL3); test: Human GPR120 calcium flux assay, Procedure Calcium A; type: cell-based; details: HEK-293 cells, FLIPR, 2500 cells/well; read-out: GPR120 Ca2+ Assay A EC50
T1 construct: expressed in transfected cells
T1 sequence (Q5NUL3 1-361): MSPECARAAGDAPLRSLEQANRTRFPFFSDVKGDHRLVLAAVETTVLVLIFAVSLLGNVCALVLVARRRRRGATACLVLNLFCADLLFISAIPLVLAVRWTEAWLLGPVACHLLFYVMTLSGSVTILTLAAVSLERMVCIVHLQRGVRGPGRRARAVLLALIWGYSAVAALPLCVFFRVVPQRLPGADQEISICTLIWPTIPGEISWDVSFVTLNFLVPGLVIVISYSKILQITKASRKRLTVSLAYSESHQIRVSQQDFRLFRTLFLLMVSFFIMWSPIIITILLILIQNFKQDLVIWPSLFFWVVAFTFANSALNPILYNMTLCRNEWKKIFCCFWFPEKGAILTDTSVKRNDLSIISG
Procedure: These cells are first loaded with the Ca^+2 sensitive dye, Fluo-4 NR. Upon stimulation, intracellular released Ca^+2 can bind to the dye and alter its fluorescence intensity. This increase in fluorescence signal, and thus the flux in intracellular [Ca^2+], is detected and quantitated by fluorescence imaging using a FLIPR reader. The effect of the agonist is measured as a function of concentration and used to calculate an EC50 based upon a response curve.
In this procedure 2500 cells/well were employed.
A Human GPR120 clone (Genbank accession number NM_001195755.1) was placed into the pcDNA3.1 mammalian expression vector carrying the neomycin resistance gene. A stable mammalian cell was generated by placing the above clone into a HEK293 background. […] Cells were split 2 times a week to keep the cells in the log-phase growth.
In preparation for the assay, HEK cells stably transfected with Human GPR120 (2.5K cells per well in 25 uL growth medium) were seeded into 384-well plates and then incubated overnight (37° C., 5% CO2). The next day, the media was changed to 20 μL assay buffer and the cell starved for 1 h at 37° C. The dye loading solution (2× dye) was prepared using 10 mL assay buffer, 100 μL of 250 mM probenecid, 1 bottle of Component A, and 20 μl of dye in DMSO. Twenty μL of the 2× dye loading buffer was then added to each well. The plates were incubated at 37° C. for 30 min, then at room temperature for an additional 15 minutes, before performing the assay on FLIPR.
The assay was performed on a FLIPR plate reader using the following parameters. Baseline was read for 10 seconds at 1 sec intervals. The program was set to transfer 10 μL of ligand from compound plate to cell plate after baseline reading. Aspiration was executed at: 10 μL/sec speed, 4.6 μL height; Dispensing was executed at: 30 μL/sec speed, 45 μL height. After compound addition, each well was read for 300 sec, with measurements collected at 1 sec intervals.
The kinetic data from the FLIPR was based upon a 5 minute window for data collection. The fluorescence of each sample well was used for individual calculations of a normalized RFU value, which was defined as maximum response minus the minimum response. […] The Fitting Equation was: Y=Bottom+(Top-Bottom)/(1+10^((Log EC50−X)*HillSlope)), where X is the log of the concentration and Y is the response.

SMILES: O=C(O)CCc1ccc(OCc2c(-c3ccc(Cl)cc3)nsc2C(F)(F)F)c(F)c1F [Cpd 106, 3-(4-[[3-(4-chlorophenyl)-5-(trifluoromethyl)-1,2-thiazol-4-yl]methoxy]-2,3-difluorophenyl)propanoic acid]
- C57 IPGTT 10 mg/kg [1]: −34

SMILES: CCc1ccc(-c2cc(C(F)(F)F)sc2COc2ccc(CCC(=O)O)c(C)c2C)cc1 [Cpd 250, 3-(4-{[3-(4-Ethylphenyl)-5-(trifluoromethyl)thiophen-2-yl]methoxy}-2,3-dimethylphenyl)propanoic acid]
- EC50 [2]: 3.23 µM

SMILES: CCc1ccc(-c2nsc(C(F)(F)F)c2COc2c(F)ccc(CC(C)CO)c2F)cc1 (stereo not drawn) [Cpd 251, 3-(3-{[3-(4-Ethylphenyl)-5-(trifluoromethyl)isothiazol-4-yl]methoxy}-2,4-difluorophenyl)-2-methylpropan-1-ol]
- EC50 [2]: > 5 µM

SMILES: Cc1ccc(-c2snc(C(C)C)c2COc2c(F)cc(CCC(=O)O)cc2F)c(F)c1 [Cpd 191]
- EC50 [2]: 0.323 µM

SMILES: O=C(O)CCc1cc(F)c(OCc2c(-c3ccc(Cl)cc3)nsc2C(F)(F)F)c(F)c1 [Cpd 79, 3-(4-[[3-(4-chlorophenyl)-5-(trifluoromethyl)-1,2-thiazol-4-yl]methoxy]-3,5-difluorophenyl)propanoic acid]
- C57 IPGTT 10 mg/kg [1]: −60

SMILES: CCc1ccc(-c2nsc(C(F)(F)F)c2COc2c(F)cc(CCC(=O)O)cc2F)cc1 [Cpd 70, 3-(4-[[3-(4-ethylphenyl)-5-(trifluoromethyl)-1,2-thiazol-4-yl]methoxy]-3,5-difluorophenyl)propanoic acid]
- C57 IPGTT 30 mg/kg ([1]; 30 mg/kg): −88
